In one data set the test system is adenovirus. In words: QPA assay for adenovirus infectivity (stability of adenovirus in formulation). It is filed as cell-based, adenovirus serotype 5 (Ad5). Particulars: for Ad5 stability in the presence of preservative: in A195 buffer with the preservative, short-term accelerated stability, infectivity assays. As to the method: QPA Assay for Adenovirus Infectivity—The compatibility of preservatives with adenovirus was assessed by measuring the infectivity adenovirus using QPA assay. The QPA assay is based on the finding that the quantity of replicating adenoviral genomes, upon infection of 293 cells, is proportional to the input quantity of infectious adenovirus 24 hours post-infection (P.I.). The accumulated adenoviral genomes are purified using Qiagen 96-well Blood DNA Extraction Kit 24 hrs P.I. and quantitated using Perkin-Elmer TaqMan PCR technology. A standard curve is constructed by using the TaqMan PCR cycle threshold (CT) reflecting the quantity of accumulated adenoviral genomes due to infection and subsequent replication as a function of the input viral infectivity of standard curve material that is determined by independent TCID50 potency assay. The infectivity of samples is interpolated from the standard curve. Infectivity can be determined within 48-72 hours using this procedure. To determine the loss of adenovirus infectivity in stability samples the infectivity of the stability sample and the corresponding −70° C. control of the same formulation are determined during the same QPA run and on the same PCR plate. The loss of infectivity in the stability samples is expressed as log loss of infectivity compared to the −70° C. control.
Results—Adenovirus was formulated in A195 buffer containing preservatives (i.e., the A500 series of Table 3). The infectivity of adenovirus was measured using a Q-PCR based Potency Assay (QPA) after storage at certain temperatures (2-8, 15, 20, 25, 30, and 37° C.) and compared to the control (corresponding sample stored at −70° C.). The stability of adenovirus was quantitatively presented as “Log Loss of Adenovirus Infectivity”. Variability of the QPA assay is reported to be +/−0.15 logs.

Data set [1] has as its system S. aureus, P. aeruginosa, E. coli, C. albicans, A. niger. In words: Antimicrobial effectiveness (AME) testing, overall result. Particulars: formulated in A195 buffer.
Data set [2] can be described thus: Solubility of preservative in A195 buffer. It is filed as physicochemical.

“Also recorded” adds a separate entry of the source.

Take `O=C(O)c1ccccc1` [benzoic acid]: in the data set with adenovirus (0.5% (w/v) chlorobutanol or 0.2% (w/v) benzoic acid in A195 pH 6.8, MRKAd5pol 10^10 VP/ml, 37° C. 1-4 weeks vs −70° C.), the “effects on the stability of adenovirus (log loss of infectivity, FIG. 1)” value was “no significant effects”. In the data set on adenovirus, the “Ad5 stability in the presence of preservative” value (“Ad5 stability in the presence” for short) is listed as “compatible with adenovirus; also recorded: compatible with Ad5”. Moreover, in data set [1], the “AME testing, overall result in words” value is recorded as “failed AME testing”.
Consider `OCc1ccccc1` [benzyl alcohol], for which the “Ad5 stability in the presence” value in the data set with adenovirus is recorded as “very poor stability”. The “AME testing, overall result in words” value in data set [1] is on record as “effective antimicrobial preservatives”.
`CC(C)(C)CC(C)(C)c1ccc(OCCOCC[N+](C)(C)Cc2ccccc2)cc1` [benzethonium chloride]: the “AME testing, overall result in words” value in data set [1] was “effective antimicrobial preservatives”.
With `Cc1cccc(O)c1` [m-cresol], the “solubility in A195 buffer” value in data set [2] is “poor solubility”. For the same compound, the “AME testing, overall result in words” value in data set [1] is listed as “effective antimicrobial preservatives”.
As to `Oc1ccccc1` [phenol], the “Ad5 stability in the presence” value in the data set with adenovirus is on record as “very unstable”. Moreover, the “AME testing, overall result in words” value in data set [1] is listed as “effective antimicrobial preservatives”.

Source of the values: patent US20070148765A1, “Preservative-containing virus formulations” (priority 2003, published 2007).
